Experiments:
Format in all cases: cell-based, human
CCD841-CoN = experiment: Cell viability assays, normal colon cells; settings: negative control cells
Experimental: FIG. 15. Inhibition of cell viability by BKAc-Puro. The cell lines were grown and analyzed as in FIG. 12.
FIG. 18. Selective cytotoxicity by BKAc-Puro on pancreatic cancer cells. Pancreatic cancer (BXPC-3 and Miapaca-2), colon cancer (HCT116 as a positive control sensitive to the drug), and normal colon (CCD841-CoN as a negative control) cells were grown and analyzed as in FIG. 13. BKAc-Puro can effectively cause cell death on pancreatic cancer cells (BXPC-3 and MiaPaca-2) that are known to resistant to conventional chemotherapeutic drugs including 5-FU and Gemicitabine.
FIG. 19. Selective cytotoxicity by BKAc-Puro on prostate cancer cells. Prostate cancer (PC-3, DU-145, and LNCaP), colon cancer (HCT116 as a positive control sensitive to the drug), and normal colon (CCD841-CoN as a negative control) cells were grown and analyzed as in FIG. 13. BKAc-Puro can effectively cause cell death on prostate cancer cells.
Cell number was determined by cell counting using improved Neubauer hemacytometer. Cell viability was calculated as the number of viable cells divided by the total number of cells using Trypan Blue Stain (Invitrogen) to distinguish non-viable cells. Data were obtained from duplicated samples with quadruplicate measurements. […] After additional 2-3 h incubation, the absorbance of the formazan at 490 nm was measured by the microplate reader. […]

[1] = system: pancreatic cancer cells (BXPC-3 and MiaPaca-2); experiment: Cell viability assay, pancreatic cancer cells; settings: MTS
Experimental: FIG. 16. Anticancer effect of BKAc-Puro on pancreatic cell lines. The cell lines were treated with DMSO (vehicle), BKAc-Puro (54 μM), or Puro (4.2 μM) for 5 d followed by MTS assay. Normal Eph4 (non-pancreatic) cells are shown as control. Data represent mean values of triplicate measurements±s.d.
FIG. 18. Selective cytotoxicity by BKAc-Puro on pancreatic cancer cells. Pancreatic cancer (BXPC-3 and Miapaca-2), colon cancer (HCT116 as a positive control sensitive to the drug), and normal colon (CCD841-CoN as a negative control) cells were grown and analyzed as in FIG. 13. […]
(§1) Cell number was determined by cell counting using improved Neubauer hemacytometer. Cell viability was calculated as the number of viable cells divided by the total number of cells using Trypan Blue Stain (Invitrogen) to distinguish non-viable cells. […] After additional 2-3 h incubation, the absorbance of the formazan at 490 nm was measured by the microplate reader. […] Determination of non-viable cells using PI staining was performed by adding 1 μg/ml of PI solution (Sigma) to the cell culture, prior to the examination under fluorescence microscopy (Axiovert 3, Carl Zeiss) through a×32 objective equipped with a digital imaging processor (Infinity 3, Lumenera).

[2] = system: malignant colon cancer cells with high HDAC and CTSL activity; experiment: Cell counting, trypan blue exclusion and PI staining, malignant colon cancer cell lines; settings: 54 μM
Experimental: FIG. 9. The colon cancer cell lines were grown for 5 d either with vehicle control DMSO (gray symbols) or 54 μM BKAc-Puro (red and blue symbols), and cell number was determined at the indicated time points.
FIG. 10. The cell lines were grown as in FIG. 8, cell viability was determined by trypan blue at the indicated time points, and is presented as the percentage of live cells treated with vehicle control (gray symbols) or BKAc-Puro (red and blue symbols).
FIG. 11. The cell lines were grown as in FIG. 8, and dead cells were determined after 80 h by PI signal under fluorescent microscope. BF, bright field. PI, fluorescent PI channel.
as §1, with “cells. Data were obtained from duplicated samples with quadruplicate measurements.” for “cells.”

[3] = system: Puro-incorporated proteins in HCT116, HT29, CCD841-CoN and Caco-2 cells; experiment: Immunoblotting of Puro-incorporated proteins in cell lysates; settings: 16.9 μM, 20 h
Experimental: (§2) FIG. 27. Levels of Puro-incorporated proteins in the cells were monitored by immunoblotting. Indicated cell lines were treated either with vehicle control DMSO or Boc-KAc-Puro (16.9 μM) in the presence or absence of TSA (0.5 μM) for 20 h, followed by preparation of cell lysates. The lower panel (anti-α-Tubulin) serves as a loading control.
as §2, with “28.” for “27.”, “Puro (2.1” for “Boc-KAc-Puro (16.9”, “16” for “20”, “lysates. […]” for “lysates.”
Cultured cells or tissue samples were sonicated in RIPA lysis buffer (1% NP-40, 0.1% SDS, 50 mM Tris-HCl pH 7.4, 150 mM NaCl, 0.5% sodium deoxycholate, 1 mM EDTA) supplemented with PMSF and protease inhibitor cocktail (Roche) on ice followed by clarification. Protein lysates were separated on sodium dodecyl sulfate-polyacrylamide gels and transferred onto nitrocellulose membranes (Whatman). The primary antibodies used were anti-puromycin (3RH11, KeraFAST) and anti-α-tubulin (Sigma-Aldrich). Proteins of interest were detected with anti-mouse secondary antibody by chemiluminescence (ECL Kit, GE Healthcare Life Sciences).

COc1ccc(CC(NC(=O)C(CCCCNC(C)=O)NC(=O)OC(C)(C)C)C(=O)NC2C(O)[C@H](n3cnc4c(N(C)C)ncnc43)O[C@@H]2CO)cc1 (stereo partly drawn) [BKAc-Puro, N-[3′-(α-Amino-p-methoxyhydrocinnamamido)-3′-deoxy-N,N-dimethyldenosinyl)-N-α-(t-butoxycarbonyl]-N-ε-acetyl-L-lysineamide]
Effect on normal colon cells (CCD841-CoN): relatively little effect | Effect on cell viability ([1]; 54 μM, 5 d): also effective | Cell death ([1]; dose-response): effectively caused cell death | Cell death (trypan blue exclusion, morphology, PI staining) [2]: massive cell death | Cell proliferation (cell number) ([2]; 5 d): impaired the proliferation | Intensity of Puro incorporation, malignant versus normal and non-malignant cells [3]: substantially greater in malignant cancer cells | Intensity of Puro incorporation in the presence of TSA ([3]; TSA 0.5 μM): compromised intensity

Source: patent US20160184459A1, “CANCER CELL SPECIFIC IMAGING PROBES AND METHODS OF USE” (THE RESEARCH FOUNDATION FOR THE STATE UNIVERSITY OF NEW YORK, priority 2013, published 2016)
